We go through one compound from PubChem BioAssay AID504934 (The Scripps Research Institute Molecular Screening Center, 2011).

Each structure is given as a SMILES string. The source made the active and inactive calls. How the calls were made is not given here.

What all share (experiment): PubChem AID 504934
Assay [1] concerns Coup-TF1. Conditions: nuclear receptor panel Gal4 luciferase reporter, at 10 µM.
Assay [2] concerns AR. The settings on record: nuclear receptor panel Gal4 luciferase reporter, at 10 µM. (In a reporter assay the amount or activity of a reporter protein is the signal.)
In assay [3] the target is Glucocorticoid receptor (Homo sapiens) (UniProt P04150). The settings on record: nuclear receptor panel Gal4 luciferase reporter, GCCR, at 10 µM.
Chain of Glucocorticoid receptor (Homo sapiens) (P04150 whole entry, looked up, the tested form may be a part): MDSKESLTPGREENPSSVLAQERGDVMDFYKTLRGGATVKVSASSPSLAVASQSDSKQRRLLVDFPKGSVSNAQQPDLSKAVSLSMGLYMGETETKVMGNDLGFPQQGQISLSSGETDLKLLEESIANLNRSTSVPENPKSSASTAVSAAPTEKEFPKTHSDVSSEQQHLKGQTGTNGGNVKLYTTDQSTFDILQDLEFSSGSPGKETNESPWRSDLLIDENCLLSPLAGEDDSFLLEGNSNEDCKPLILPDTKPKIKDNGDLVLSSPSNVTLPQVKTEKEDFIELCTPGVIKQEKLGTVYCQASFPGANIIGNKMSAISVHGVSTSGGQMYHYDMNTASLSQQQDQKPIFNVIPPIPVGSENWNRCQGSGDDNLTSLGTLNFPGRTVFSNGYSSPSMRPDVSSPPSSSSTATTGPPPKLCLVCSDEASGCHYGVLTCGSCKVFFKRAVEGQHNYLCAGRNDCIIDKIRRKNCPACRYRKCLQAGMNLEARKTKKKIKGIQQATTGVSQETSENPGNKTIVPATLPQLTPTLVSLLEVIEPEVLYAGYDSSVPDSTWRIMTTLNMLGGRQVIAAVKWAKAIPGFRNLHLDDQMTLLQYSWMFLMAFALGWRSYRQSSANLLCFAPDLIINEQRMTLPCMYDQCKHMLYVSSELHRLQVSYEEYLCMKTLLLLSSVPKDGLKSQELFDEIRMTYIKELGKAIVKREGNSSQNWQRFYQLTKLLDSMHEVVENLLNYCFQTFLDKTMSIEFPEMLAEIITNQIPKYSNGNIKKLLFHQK
In assay [4] the test system is RXRg. Conditions: nuclear receptor panel Gal4 luciferase reporter, at 10 µM.
The target in assay [5] is Estrogen receptor (Homo sapiens) (UniProt P03372). Conditions: nuclear receptor panel Gal4 luciferase reporter, ESR1 (ESRA; Era), at 10 µM.
Chain of Estrogen receptor (Homo sapiens) (P03372 whole entry, looked up, the tested form may be a part): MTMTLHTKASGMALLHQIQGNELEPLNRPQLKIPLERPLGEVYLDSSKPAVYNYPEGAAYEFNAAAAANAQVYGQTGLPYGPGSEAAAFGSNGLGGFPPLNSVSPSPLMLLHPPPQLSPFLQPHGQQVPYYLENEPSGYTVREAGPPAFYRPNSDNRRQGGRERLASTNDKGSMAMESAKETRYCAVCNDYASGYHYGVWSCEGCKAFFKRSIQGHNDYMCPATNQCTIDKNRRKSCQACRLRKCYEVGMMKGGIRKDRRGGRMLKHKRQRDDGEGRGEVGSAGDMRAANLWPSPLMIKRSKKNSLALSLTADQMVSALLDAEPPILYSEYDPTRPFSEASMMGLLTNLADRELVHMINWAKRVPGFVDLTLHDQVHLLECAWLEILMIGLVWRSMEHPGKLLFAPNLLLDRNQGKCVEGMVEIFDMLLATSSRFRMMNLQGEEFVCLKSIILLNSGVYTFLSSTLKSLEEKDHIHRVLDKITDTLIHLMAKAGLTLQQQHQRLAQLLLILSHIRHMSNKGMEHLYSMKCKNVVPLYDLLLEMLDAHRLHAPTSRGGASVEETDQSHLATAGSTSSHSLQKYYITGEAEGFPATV
Assay [6] concerns RARg. The settings on record: nuclear receptor panel Gal4 luciferase reporter, at 10 µM.
The test system of assay [7] is SHP. Conditions: nuclear receptor panel Gal4 luciferase reporter, at 10 µM.
Assay [8] has as its target Nuclear receptor subfamily 5 group A member 2 (Homo sapiens) (UniProt O00482). Conditions: nuclear receptor panel Gal4 luciferase reporter, LRH1, at 10 µM.
The subject of assay [9] is PNR. Conditions: nuclear receptor panel Gal4 luciferase reporter, at 10 µM.
In assay [10] the test system is MR. Conditions: nuclear receptor panel Gal4 luciferase reporter, at 10 µM.
For assay [11], the system named is HNF4g. The settings on record: nuclear receptor panel Gal4 luciferase reporter, at 10 µM.
Assay [12] concerns GCNR. Conditions: nuclear receptor panel Gal4 luciferase reporter, at 10 µM.
Assay [13] concerns TR4. The settings on record: nuclear receptor panel Gal4 luciferase reporter, at 10 µM.
Assay [14] concerns LXRa. Conditions: nuclear receptor panel Gal4 luciferase reporter, at 10 µM.
Assay [15] relates to Rev-erb a. Conditions: nuclear receptor panel Gal4 luciferase reporter, at 10 µM.
Assay [16] relates to Rev-erb b. Conditions: nuclear receptor panel Gal4 luciferase reporter, at 10 µM.
Assay [17] concerns the target Peroxisome proliferator-activated receptor gamma (Homo sapiens) (UniProt P37231). Conditions: nuclear receptor panel Gal4 luciferase reporter, PPARg, at 10 µM.
Assay [18] has as its target Nuclear receptor ROR-gamma (Homo sapiens) (UniProt P51449). The settings on record: nuclear receptor panel Gal4 luciferase reporter, RORg, at 10 µM.
In assay [19] the test system is PPARd. Conditions: nuclear receptor panel Gal4 luciferase reporter, at 10 µM.
The subject of assay [20] is PGR. The settings on record: nuclear receptor panel Gal4 luciferase reporter, at 10 µM.
For assay [21], the system named is RARb. The settings on record: nuclear receptor panel Gal4 luciferase reporter, at 10 µM.
Assay [22] concerns Nurr1. Conditions: nuclear receptor panel Gal4 luciferase reporter, at 10 µM.
Assay [23] has as its system CAR. Conditions: nuclear receptor panel Gal4 luciferase reporter, at 10 µM.
Assay [24] concerns ERRg. The settings on record: nuclear receptor panel Gal4 luciferase reporter, at 10 µM.

Chain of Peroxisome proliferator-activated receptor gamma (Homo sapiens) (P37231 whole entry, looked up, the tested form may be a part): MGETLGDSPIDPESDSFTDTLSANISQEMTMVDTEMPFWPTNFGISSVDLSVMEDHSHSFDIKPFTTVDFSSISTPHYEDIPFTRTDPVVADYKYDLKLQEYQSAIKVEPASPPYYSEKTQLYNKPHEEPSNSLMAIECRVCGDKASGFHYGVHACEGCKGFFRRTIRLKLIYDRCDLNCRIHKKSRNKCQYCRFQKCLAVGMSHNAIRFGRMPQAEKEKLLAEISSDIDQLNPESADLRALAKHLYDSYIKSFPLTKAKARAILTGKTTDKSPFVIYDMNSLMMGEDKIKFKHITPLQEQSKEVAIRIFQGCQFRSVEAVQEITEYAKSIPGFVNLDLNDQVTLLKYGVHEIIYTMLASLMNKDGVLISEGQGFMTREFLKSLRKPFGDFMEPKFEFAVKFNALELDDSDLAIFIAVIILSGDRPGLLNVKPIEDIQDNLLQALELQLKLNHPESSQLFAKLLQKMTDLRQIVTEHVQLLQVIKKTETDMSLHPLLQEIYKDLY
Chain of Nuclear receptor subfamily 5 group A member 2 (Homo sapiens) (O00482 whole entry, looked up, the tested form may be a part): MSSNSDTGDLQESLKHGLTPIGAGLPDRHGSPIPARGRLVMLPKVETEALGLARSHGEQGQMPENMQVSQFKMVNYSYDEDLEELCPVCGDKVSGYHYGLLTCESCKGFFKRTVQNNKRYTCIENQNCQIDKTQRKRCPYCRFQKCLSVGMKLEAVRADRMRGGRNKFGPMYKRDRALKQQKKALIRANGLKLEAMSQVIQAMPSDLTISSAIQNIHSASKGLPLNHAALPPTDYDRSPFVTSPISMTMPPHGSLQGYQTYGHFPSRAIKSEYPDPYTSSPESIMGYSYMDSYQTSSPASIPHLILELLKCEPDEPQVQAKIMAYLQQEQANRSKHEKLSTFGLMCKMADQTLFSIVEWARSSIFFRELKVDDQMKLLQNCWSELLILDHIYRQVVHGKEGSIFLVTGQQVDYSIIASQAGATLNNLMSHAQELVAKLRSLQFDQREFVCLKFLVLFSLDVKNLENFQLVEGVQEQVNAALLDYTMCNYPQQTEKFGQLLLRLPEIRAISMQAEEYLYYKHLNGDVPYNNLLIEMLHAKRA
Chain of Nuclear receptor ROR-gamma (Homo sapiens) (P51449 whole entry, looked up, the tested form may be a part): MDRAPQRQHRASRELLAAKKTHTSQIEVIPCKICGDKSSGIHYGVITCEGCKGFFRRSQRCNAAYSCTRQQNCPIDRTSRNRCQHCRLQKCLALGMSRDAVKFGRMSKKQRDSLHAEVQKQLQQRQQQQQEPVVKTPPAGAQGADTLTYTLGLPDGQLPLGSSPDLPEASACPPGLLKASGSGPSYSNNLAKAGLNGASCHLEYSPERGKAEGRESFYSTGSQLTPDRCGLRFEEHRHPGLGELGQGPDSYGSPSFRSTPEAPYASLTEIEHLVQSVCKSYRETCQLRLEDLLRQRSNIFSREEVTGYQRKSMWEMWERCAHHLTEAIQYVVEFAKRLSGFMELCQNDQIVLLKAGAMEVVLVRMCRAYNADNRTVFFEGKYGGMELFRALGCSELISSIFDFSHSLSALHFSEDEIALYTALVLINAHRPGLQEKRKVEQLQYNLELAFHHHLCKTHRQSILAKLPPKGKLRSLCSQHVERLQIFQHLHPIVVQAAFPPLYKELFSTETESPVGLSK

Turning to `O=c1cc(N2CCN(c3cccc(Cl)c3)CC2)[nH]c(=O)n1C1CCCCC1`, the fold change is 0.72 in assay [1]; 0.91 (inactive) in assay [2]; 1.13 (inactive) in [3]; 0.81 (inactive) in assay [4]; 0.61 in assay [5]; 0.56 in assay [6]. For the same compound, the fold change is 0.86 (inactive) in [7]; 0.88 (inactive) in assay [8]; 0.72 in assay [9]; 1.41 in assay [10]; 0.44 in assay [11]; 1.06 (inactive) in assay [12]. The fold change in assay [13] was 0.8; in [14] it was 1.27; in assay [15], 0.84 (inactive); in [16], 0.69; in assay [17] it was 0.86 (inactive); in assay [18] it was 0.52. In addition, the fold change in assay [19] is 1.54; in assay [20] it was 0.97 (inactive); in [21], 0.54; in assay [22], 0.79; in assay [23] it was 0.38; in [24] it was 0.49.
